Reference: ChEMBL document CHEMBL5465560, “Selectivity Literature for EUbOPEN Chemogenomic Library” (2024)

What was measured:
[1] = biological target: T1, Ephrin type-A receptor 8 (Homo sapiens) (UniProt P29322); test: Selectivity interaction (SelectScreen profiling (Invitrogen)) EUB0000607a EPHA8; conditions: at 2 µM
T1 sequence (whole entry): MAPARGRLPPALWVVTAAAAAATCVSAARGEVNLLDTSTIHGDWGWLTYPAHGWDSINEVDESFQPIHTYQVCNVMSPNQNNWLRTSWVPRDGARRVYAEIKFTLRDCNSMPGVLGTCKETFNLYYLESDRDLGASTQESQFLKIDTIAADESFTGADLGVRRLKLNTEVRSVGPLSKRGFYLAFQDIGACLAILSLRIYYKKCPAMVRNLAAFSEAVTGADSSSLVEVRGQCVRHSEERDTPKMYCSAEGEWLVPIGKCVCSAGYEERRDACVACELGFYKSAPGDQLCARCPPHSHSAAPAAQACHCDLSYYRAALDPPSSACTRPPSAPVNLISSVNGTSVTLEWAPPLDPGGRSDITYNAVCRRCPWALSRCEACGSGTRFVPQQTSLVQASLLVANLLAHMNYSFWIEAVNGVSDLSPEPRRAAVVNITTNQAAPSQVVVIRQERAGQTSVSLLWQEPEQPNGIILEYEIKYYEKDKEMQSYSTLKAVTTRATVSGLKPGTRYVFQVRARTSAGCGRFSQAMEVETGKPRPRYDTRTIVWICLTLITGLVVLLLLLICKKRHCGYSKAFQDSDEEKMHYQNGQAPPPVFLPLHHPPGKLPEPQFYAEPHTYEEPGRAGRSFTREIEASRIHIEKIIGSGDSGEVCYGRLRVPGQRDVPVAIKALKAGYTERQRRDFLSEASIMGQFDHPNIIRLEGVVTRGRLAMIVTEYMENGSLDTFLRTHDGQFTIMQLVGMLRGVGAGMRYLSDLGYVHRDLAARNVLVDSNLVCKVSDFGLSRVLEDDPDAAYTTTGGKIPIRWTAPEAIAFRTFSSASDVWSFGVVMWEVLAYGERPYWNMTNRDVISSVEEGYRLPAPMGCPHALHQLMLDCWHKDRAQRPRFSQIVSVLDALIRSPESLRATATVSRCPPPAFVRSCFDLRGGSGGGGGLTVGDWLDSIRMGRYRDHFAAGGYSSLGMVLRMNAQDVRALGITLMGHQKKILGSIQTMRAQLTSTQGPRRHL

[2] = biological target: T2, Protein arginine N-methyltransferase 7 (Homo sapiens) (UniProt Q9NVM4); conditions: at 1 µM
T2 sequence (whole entry): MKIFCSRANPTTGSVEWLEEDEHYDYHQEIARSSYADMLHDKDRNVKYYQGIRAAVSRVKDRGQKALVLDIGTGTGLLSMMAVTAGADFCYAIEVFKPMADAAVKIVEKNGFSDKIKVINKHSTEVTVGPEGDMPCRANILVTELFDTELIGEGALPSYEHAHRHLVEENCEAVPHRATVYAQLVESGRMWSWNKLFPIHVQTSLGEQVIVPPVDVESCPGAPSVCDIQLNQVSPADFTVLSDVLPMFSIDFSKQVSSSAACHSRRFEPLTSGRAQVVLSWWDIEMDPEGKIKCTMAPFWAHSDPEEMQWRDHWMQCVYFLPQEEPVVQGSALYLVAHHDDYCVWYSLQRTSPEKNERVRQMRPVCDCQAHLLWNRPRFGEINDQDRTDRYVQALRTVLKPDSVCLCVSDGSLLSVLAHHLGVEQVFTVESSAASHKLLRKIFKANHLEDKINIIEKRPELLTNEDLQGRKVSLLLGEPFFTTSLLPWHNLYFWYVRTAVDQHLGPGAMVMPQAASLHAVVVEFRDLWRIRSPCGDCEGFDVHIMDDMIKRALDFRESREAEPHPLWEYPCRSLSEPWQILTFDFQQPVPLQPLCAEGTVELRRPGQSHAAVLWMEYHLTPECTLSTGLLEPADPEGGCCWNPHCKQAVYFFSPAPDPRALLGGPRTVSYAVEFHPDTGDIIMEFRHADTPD

Focal adhesion kinase 1 = Focal adhesion kinase 1 (Homo sapiens, UniProt Q05397); test: Selectivity interaction (ActivX KiNativ screen (kinase selectivity in THP-1 cell lysates)) EUB0000639a PTK2; assay type: subcellular; conditions: lysate, at 0.04 µM
Focal adhesion kinase 1, sequence (Q05397 2-1052 limits assumed): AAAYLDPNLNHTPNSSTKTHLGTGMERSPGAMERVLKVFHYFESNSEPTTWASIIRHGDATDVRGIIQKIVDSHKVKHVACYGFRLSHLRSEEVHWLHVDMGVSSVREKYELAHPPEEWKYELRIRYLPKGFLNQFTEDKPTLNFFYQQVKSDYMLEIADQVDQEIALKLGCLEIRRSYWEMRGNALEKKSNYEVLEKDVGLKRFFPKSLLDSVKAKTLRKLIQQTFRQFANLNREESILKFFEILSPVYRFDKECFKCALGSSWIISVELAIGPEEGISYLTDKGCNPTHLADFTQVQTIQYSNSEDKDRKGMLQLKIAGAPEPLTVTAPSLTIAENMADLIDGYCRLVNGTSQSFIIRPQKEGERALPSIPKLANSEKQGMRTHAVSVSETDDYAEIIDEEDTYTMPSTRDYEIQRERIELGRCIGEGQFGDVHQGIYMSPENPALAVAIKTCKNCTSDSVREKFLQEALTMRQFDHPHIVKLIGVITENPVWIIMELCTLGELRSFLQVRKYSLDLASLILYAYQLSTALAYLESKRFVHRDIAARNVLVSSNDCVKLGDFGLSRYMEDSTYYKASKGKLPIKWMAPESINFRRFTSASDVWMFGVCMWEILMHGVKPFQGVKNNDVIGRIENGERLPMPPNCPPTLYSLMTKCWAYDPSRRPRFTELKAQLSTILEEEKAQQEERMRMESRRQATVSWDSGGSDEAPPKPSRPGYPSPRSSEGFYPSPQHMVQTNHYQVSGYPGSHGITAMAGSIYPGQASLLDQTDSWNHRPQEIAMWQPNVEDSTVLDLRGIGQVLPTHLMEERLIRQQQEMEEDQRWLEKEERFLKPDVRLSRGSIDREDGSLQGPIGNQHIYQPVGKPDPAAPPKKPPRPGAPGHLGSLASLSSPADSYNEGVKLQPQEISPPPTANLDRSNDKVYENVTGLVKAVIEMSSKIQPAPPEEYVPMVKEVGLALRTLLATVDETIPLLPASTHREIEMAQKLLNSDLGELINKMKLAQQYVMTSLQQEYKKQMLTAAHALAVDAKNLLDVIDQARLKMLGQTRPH

[3] = biological target: T3, Serine/threonine-protein kinase PLK4 (Homo sapiens) (UniProt O00444); test: Selectivity interaction (ProQinase) EUB0000171b PLK4
T3 sequence (whole entry): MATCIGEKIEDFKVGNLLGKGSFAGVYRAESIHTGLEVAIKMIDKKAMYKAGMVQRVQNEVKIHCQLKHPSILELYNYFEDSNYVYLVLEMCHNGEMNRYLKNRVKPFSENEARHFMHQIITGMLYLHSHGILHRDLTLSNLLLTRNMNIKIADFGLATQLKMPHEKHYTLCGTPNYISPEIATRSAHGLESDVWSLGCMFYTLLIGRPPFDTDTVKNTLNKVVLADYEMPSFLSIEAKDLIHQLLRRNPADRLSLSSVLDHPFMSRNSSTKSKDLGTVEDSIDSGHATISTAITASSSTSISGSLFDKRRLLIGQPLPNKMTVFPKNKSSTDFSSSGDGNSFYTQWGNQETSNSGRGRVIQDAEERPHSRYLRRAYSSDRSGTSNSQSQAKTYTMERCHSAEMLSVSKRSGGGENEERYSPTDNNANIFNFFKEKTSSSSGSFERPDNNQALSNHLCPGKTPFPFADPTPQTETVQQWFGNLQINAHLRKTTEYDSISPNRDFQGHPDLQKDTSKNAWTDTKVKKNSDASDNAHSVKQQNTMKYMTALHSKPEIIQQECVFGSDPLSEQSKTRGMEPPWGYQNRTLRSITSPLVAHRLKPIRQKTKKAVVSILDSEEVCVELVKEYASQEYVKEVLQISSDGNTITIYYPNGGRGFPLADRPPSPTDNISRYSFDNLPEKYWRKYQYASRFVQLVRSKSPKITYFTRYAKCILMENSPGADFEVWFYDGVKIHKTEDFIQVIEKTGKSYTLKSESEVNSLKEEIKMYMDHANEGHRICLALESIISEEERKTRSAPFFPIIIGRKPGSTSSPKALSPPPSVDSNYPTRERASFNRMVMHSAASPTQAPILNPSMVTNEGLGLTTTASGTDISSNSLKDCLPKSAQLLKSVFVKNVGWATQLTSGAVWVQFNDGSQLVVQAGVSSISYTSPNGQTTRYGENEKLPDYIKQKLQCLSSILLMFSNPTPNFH

[4] = test system: Proto-oncogene tyrosine-protein kinase receptor Ret (Homo sapiens), P07949 [M918T]; test: (§1) Selectivity interaction (KinomeScan (DiscoverX)) EUB0000695a RET; conditions: at 100 nM
Proto-oncogene tyrosine-protein kinase receptor Ret (Homo sapiens), P07949 [M918T], sequence (P07949 whole entry M918T): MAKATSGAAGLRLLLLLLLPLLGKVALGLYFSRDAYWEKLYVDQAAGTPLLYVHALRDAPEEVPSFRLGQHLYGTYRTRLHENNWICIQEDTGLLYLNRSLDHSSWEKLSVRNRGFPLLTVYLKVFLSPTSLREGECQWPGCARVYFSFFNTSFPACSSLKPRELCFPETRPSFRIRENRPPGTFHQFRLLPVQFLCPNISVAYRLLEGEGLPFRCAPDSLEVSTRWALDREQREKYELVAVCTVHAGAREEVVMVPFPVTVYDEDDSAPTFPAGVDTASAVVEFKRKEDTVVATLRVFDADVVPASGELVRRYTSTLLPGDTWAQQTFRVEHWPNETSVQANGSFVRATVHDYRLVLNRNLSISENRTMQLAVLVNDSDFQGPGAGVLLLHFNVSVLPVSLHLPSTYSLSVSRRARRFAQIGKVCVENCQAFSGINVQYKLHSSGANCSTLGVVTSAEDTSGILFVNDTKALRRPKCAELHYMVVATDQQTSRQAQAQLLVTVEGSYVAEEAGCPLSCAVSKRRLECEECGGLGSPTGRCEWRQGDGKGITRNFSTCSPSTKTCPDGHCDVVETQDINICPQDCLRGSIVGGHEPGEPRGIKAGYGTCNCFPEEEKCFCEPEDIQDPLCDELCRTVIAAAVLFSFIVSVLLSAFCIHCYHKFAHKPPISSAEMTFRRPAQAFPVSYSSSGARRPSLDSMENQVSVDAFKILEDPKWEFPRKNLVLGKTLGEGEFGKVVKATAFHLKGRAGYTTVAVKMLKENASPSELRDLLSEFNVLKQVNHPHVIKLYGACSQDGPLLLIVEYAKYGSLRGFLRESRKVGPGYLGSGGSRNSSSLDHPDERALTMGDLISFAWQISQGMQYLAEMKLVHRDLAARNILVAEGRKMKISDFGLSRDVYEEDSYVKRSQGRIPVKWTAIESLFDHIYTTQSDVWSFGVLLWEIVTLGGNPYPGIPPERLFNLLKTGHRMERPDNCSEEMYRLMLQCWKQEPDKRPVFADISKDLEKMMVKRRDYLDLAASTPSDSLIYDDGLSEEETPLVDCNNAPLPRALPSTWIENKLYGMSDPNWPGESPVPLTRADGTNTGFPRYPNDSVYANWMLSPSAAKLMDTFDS

[5] = biological target: Proto-oncogene tyrosine-protein kinase receptor Ret (Homo sapiens, UniProt P07949); test: as §1; conditions: at 100 nM
Proto-oncogene tyrosine-protein kinase receptor Ret, sequence (P07949 whole entry): as the sequence (P07949 whole entry M918T) above, with T918M counted along it

[6] = test system: Proto-oncogene tyrosine-protein kinase receptor Ret (Homo sapiens), P07949 [V804L]; test: as §1; conditions: at 100 nM
Proto-oncogene tyrosine-protein kinase receptor Ret (Homo sapiens), P07949 [V804L], sequence (P07949 whole entry V804L): as the sequence (P07949 whole entry M918T) above, with V804L, T918M counted along it

[7] = test system: Proto-oncogene tyrosine-protein kinase receptor Ret (Homo sapiens), P07949 [V804M]; test: as §1; conditions: at 100 nM
Proto-oncogene tyrosine-protein kinase receptor Ret (Homo sapiens), P07949 [V804M], sequence (P07949 whole entry V804M): as the sequence (P07949 whole entry M918T) above, with V804M, T918M counted along it

SMILES: CNC(=O)Nc1ccc(-c2nc(N3CC4CCC(C3)O4)c3cnn(C4CCC5(CC4)OCCO5)c3n2)cc1
- % of inhibition [1]: 24%

SMILES: CNCCN1CCC(c2cc(CN(C)C(=O)c3cccc(Oc4ccccc4)c3)ccn2)CC1
- % activity [2]: > 90%

SMILES: CC[C@@H]1[C@H](F)C(=O)N[C@@H]1COc1nccc2cc(C(N)=O)c(OC)cc12 [ZIMLOVISERTIB]
- % of inhibition (Focal adhesion kinase 1): -20.7%

SMILES: C=CC(=O)Nc1cccc(C(=O)Nc2ccc(Nc3cc(-c4[nH]c(SC)nc4C)ccn3)cc2)c1
- % of control ([3]; at 1 µM): 77%
- % of control ([3]; at 5 µM): 57%

SMILES: Cc1cc(F)c(C(=O)Nc2cccc(-c3nncn3C(C)C)n2)cc1-n1cnc(C2CC2)c1
- % of control [4]: 100%
- % of control [5]: 96%
- % of control [6]: 100%
- % of control [7]: 98%
